What was measured:
[1] = test system: human LDL receptor gene promoter region coupled to firefly Luciferase reporter gene in Hep-G2 cell line; test: In vitro determination of LDL receptor induction using the Luciferase assay; type: cell-based; conditions: for LDL-receptor induction in %, compared with control: comparative test
Description: 1) In vitro Determination of LDL Receptor Induction Using the Luciferase Assay
LDL-receptor induction is determined using the Luciferase assay as follows: for this purpose, a regulatory DNA fragment (4 kb) of the human LDL receptor gene which contains the complete promoter region is coupled to the firefly Luciferase reporter gene and stably transfixed into a Hep-G2 cell line. Cells from this line were seeded out on collagen-coated 96-well plates in MEM (minimum essential medium). After 24 hours in culture, the test substances, dissolved in DMSO, were added in final concentrations of 10 nM to 10 μM (final DMSO concentration=2%). The substances were incubated for 12-18 hours overnight (4 wells/conc. in each case), then D-luciferin was added as substrate for the Luciferase, and the luminescence was measured. The measured luminescence as a percentage of the control (control=100%) incubated only with DMSO indicates the extent of the relative LDL-receptor induction (Table 2).
Further details of the method are described in: Current Protocols in Molecular Biology, F. M. Ausubel, R. Brent, R. E. Kingston, D. D. Moore, J. G. Seidman, J. A. Smith and Kevin Struhl editors, J. Wiley and Sons Inc., U.S.A.
A comparative test was carried out by the Luciferase assay described above using 2,4-dichloro-5-(3,5-dimethylpiperidinosulfamoyl)benzoic acid and the compound from Example 42. [drawing 8]

hyperlipidemic hamsters = test: In vivo determination of reduction in LDL cholesterol in hyperlipemic hamsters; set-up: species or system male Syrian hamsters; conditions: vs placebo-treated control
Description: 2) In vivo Determination of Reduction in LDL Cholesterol in Hamsters.
Cholesterol-lowering effect of LDL-receptor inducers in hyperlipemic hamsters
In this animal experiment, the effect of LDL-receptor inducers after bolus administration to hamsters on a lipid-rich diet was investigated.
The test animals used were male Syrian hamsters (Charles River) with an average body weight of 100-120 g at the start of adaptation. The animals were divided into groups (n=6) on the basis of body weight. Severe hyperlipidemia was induced by feeding with a diet supplemented with 15% butter and 3% cholesterol. The treatment started after preliminary feeding for 2 weeks. The test substances were administered orally by gavage once a day over a period of 10 days. The plasma lipid level was analyzed after 10 days.

[2] = test compound 1.5 μM, control (DMSO only)=100%, Hep-G2 reporter line
[3] = test compound 0.15 μM, control (DMSO only)=100%, Hep-G2 reporter line
[4] = test compound 0.05 μM, control (DMSO only)=100%, Hep-G2 reporter line
[5] = 20 mg/kg p.o. once a day for 10 days
[6] = 10 mg/kg p.o. once a day for 10 days
[7] = 40 mg/kg p.o. once a day for 10 days
[8] = test compound 0.15 μM, control (DMSO only)=100%, Hep-G2 reporter line, 0.15 µM

CN1CCN(c2cc(NCCCc3ccccc3)c(S(=O)(=O)N(C)c3ccccc3)cc2C(=O)N(C)c2ccccc2)CC1 [Example 2]
LDL-receptor induction (% of control) [1, 2]: 225% (1.5 μM)

CN1CCN(c2cc(NCCc3ccccc3)c(S(=O)(=O)N(C)c3ccccc3)cc2C(=O)N(C)c2ccccc2)CC1 [Example 3]
LDL-receptor induction (% of control) [1, 2]: 276% (1.5 μM)

CN1CCN(c2cc(NC3CCN(Cc4ccccc4)CC3)c(S(=O)(=O)N(C)c3ccccc3)cc2C(=O)N(C)c2ccccc2)CC1 [Example 4]
LDL-receptor induction (% of control) [1, 3]: 190% (0.15 μM)

CN1CCN(c2cc(N3CCC(Cc4ccccc4)CC3)c(S(=O)(=O)N(C)c3ccccc3)cc2C(=O)N(C)c2ccccc2)CC1 [Example 9]
LDL-receptor induction (% of control) [1, 3]: 170% (0.15 μM)

CN1CCN(c2cc(NC3CCN(Cc4ccccc4)CC3)c(S(C)(=O)=O)cc2C(=O)N(C)c2ccccc2)CC1 [Example 14]
LDL-receptor induction (% of control) [1, 2]: 176% (1.5 μM)

CN(C(=O)c1cc(S(=O)(=O)N(C)c2ccccc2)c(N2CCC(Cc3ccccc3)CC2)cc1NCCN1CCCC1)c1ccccc1 [Example 22]
LDL-receptor induction (% of control) [1, 3]: 224% (0.15 μM)

CN(C(=O)c1cc(S(=O)(=O)N(C)c2ccccc2)c(N2CCC(c3ccccc3)CC2)cc1NCCN1CCCC1)c1ccccc1 [Example 25]
LDL-receptor induction (% of control) [1, 4]: 152% | LDL-receptor induction (% of control) [1, 2]: 346%

CN1CCN(c2cc(N3CCC(Cc4ccccc4)CC3)c(S(C)(=O)=O)cc2C(=O)N2CCCCC2)CC1 [Example 30]
LDL-receptor induction (% of control) [1, 3]: 199% | LDL-receptor induction (% of control) [1, 2]: 255%

COCCCNC(=O)c1cc(S(C)(=O)=O)c(N2CCC(c3ccccc3)CC2)cc1N1CCN(C)CC1 [Example 34]
LDL-receptor induction (% of control) [1, 3]: 210% | LDL-receptor induction (% of control) ([1]; test compound 4 μM, control (DMSO only)=100%, Hep-G2 reporter line): 291%

CN1CCN(c2cc(N3CCC(c4ccccc4)CC3)c(S(=O)(=O)N3CCCCC3)cc2C(=O)N2CCCCC2)CC1 [Example 37]
LDL-receptor induction (% of control) [1, 3]: 204% | LDL-receptor induction (% of control) [1, 2]: 227% | Relative change in plasma LDL cholesterol (hyperlipidemic hamsters; [5]): −31% | Relative change in plasma total cholesterol (hyperlipidemic hamsters; [5]): −21% | Relative change in plasma triglycerides (hyperlipidemic hamsters; [5]): −46%

CCN(CC)C(=O)c1cc(S(=O)(=O)Cc2ccccc2)c(N2CCC(c3ccccc3)CC2)cc1N(CC)CCN(C)C [Example 42, 2-[(2-Dimethylaminoethyl)ethylamino]-N,N-diethyl-5-phenylmethane-sulfonyl-4-(4-phenylpiperidin-1-yl)benzamide]
activity at 0.05 µM ([1]; Homo sapiens, HepG2, test compound 0.05 μM, control (DMSO only)=100%, Hep-G2 reporter line): 149% | LDL-receptor induction in %, compared with control ([1]; 0.05 μM): 204% | LDL-receptor induction in %, compared with control ([1]; 0.15 μM): 219% | LDL-receptor induction in %, compared with control ([1]; 1.5 μM): 250% | LDL-receptor induction in %, compared with control ([1]; 4 μM): 278%

CCCCCNC(=O)c1cc(S(C)(=O)=O)c(N2CCC(Cc3ccccc3)CC2)cc1NCCN1CCCC1 [Example 53]
LDL-receptor induction (% of control) [1, 4]: 197% | LDL-receptor induction (% of control) [1, 3]: 221% | Relative change in plasma LDL cholesterol (hyperlipidemic hamsters; [6]): −52% | Relative change in plasma total cholesterol (hyperlipidemic hamsters; [6]): −7% | Relative change in plasma triglycerides (hyperlipidemic hamsters; [6]): +21% | Relative change in plasma LDL cholesterol (hyperlipidemic hamsters; [5]): −57% | Relative change in plasma total cholesterol (hyperlipidemic hamsters; [5]): −16% | Relative change in plasma triglycerides (hyperlipidemic hamsters; [5]): −11% | Relative change in plasma LDL cholesterol (hyperlipidemic hamsters; [7]): −58% | Relative change in plasma total cholesterol (hyperlipidemic hamsters; [7]): −17% | Relative change in plasma triglycerides (hyperlipidemic hamsters; [7]): −23%

CCCCCNC(=O)c1cc(S(C)(=O)=O)c(N2CCC(c3ccccc3)CC2)cc1NCCN1CCCC1 [Example 54]
LDL-receptor induction (% of control) [1, 8]: 223% (0.15 μM)

COCCCNC(=O)c1cc(S(C)(=O)=O)c(N2CCC(Cc3ccccc3)CC2)cc1NCCN1CCCC1 [Example 57]
LDL-receptor induction (% of control) [1, 3]: 222% (0.15 μM)

COCCCNC(=O)c1cc(S(C)(=O)=O)c(N2CCC(Cc3ccccc3)CC2)cc1N(C)CCN(C)C [Example 62]
LDL-receptor induction (% of control) [1, 4]: 205% (0.05 μM)

CN(C)CCN(C)c1cc(N2CCC(Cc3ccccc3)CC2)c(S(C)(=O)=O)cc1C(=O)N1CCCCC1 [Example 67]
LDL-receptor induction (% of control) [1, 3]: 203% (0.15 μM)

CCCCCNC(=O)c1cc(S(=O)(=O)Cc2ccccc2)c(N2CCC(c3ccc(F)cc3)CC2)cc1N(CC)CCN(C)C [Example 76]
LDL-receptor induction (% of control) [1, 3]: 244% (0.15 μM)

CCCCCNC(=O)c1cc(S(=O)(=O)Cc2ccccc2)c(N2CCC(c3ccc(C)cc3)CC2)cc1N(CC)CCN(C)C [Example 78]
LDL-receptor induction (% of control) [1, 3]: 200% (0.15 μM)

CCN(CC)C(=O)c1cc(S(=O)(=O)Cc2ccc(F)cc2F)c(N2CCC(c3ccccc3)CC2)cc1N(CC)CCN(C)C [Example 82]
LDL-receptor induction (% of control) [1, 3]: 227% (0.15 μM)

CCN(CC)C(=O)c1cc(S(=O)(=O)Cc2ccc(C)cc2)c(N2CCC(c3ccccc3)CC2)cc1NCCN1CCCC1 [Example 83]
LDL-receptor induction (% of control) [1, 3]: 212% (0.15 μM)

CCN(CC)C(=O)c1cc(S(=O)(=O)Cc2cccc(OC)c2)c(N2CCC(c3ccccc3)CC2)cc1NCCN1CCCC1 [Example 84]
LDL-receptor induction (% of control) [1, 4]: 240% (0.05 μM)

CCN(CC)C(=O)c1cc(S(=O)(=O)Cc2cccc(OC(F)(F)F)c2)c(N2CCC(c3ccccc3)CC2)cc1NCCN1CCCC1 [Example 91]
LDL-receptor induction (% of control) [1, 4]: 231% (0.05 μM)

CCN(CC)C(=O)c1cc(S(=O)(=O)Cc2cc(OC)cc(OC)c2)c(N2CCC(c3ccccc3)CC2)cc1N(CC)CCN(C)C [Example 96]
LDL-receptor induction (% of control) [1, 4]: 196% (0.05 μM)

CCN(CCN(C)C)c1cc(N2CCC(c3ccccc3)CC2)c(S(=O)(=O)Cc2ccccc2)cc1C(=O)NCCCCCO [Example 107]
LDL-receptor induction (% of control) [1, 4]: 288% (0.05 μM)

CCN(CC)C(=O)c1cc(S(=O)(=O)Cc2ccc(C(F)(F)F)cc2)c(N2CCC(c3ccccc3)CC2)cc1N(CC)CCN(C)C [Example 113]
LDL-receptor induction (% of control) [1, 4]: 217% (0.05 μM)

CCN(CC)C(=O)c1cc(S(=O)(=O)Cc2ccc(C#N)cc2)c(N2CCC(c3ccccc3)CC2)cc1N(CC)CCN(C)C [Example 116]
LDL-receptor induction (% of control) [1, 4]: 235% (0.05 μM)

CCCCCNC(=O)c1cc(S(C)(=O)=O)c(N2CCC(c3ccccc3)CC2)cc1NCCN1CCCC1.CS(=O)(=O)O [Example 141, 2-[NH-Ethyl-N-pyyrolidinyl]-NH-pentyl-5-methylsulfonyl-4-(4-phenylpiperidin-1-yl)benzamide]
LDL-receptor induction (% of control) [1, 3]: 280% (0.15 μM)

CCCCCNC(=O)c1cc(S(C)(=O)=O)c(N2CCC(c3ccccc3)CC2)cc1NCCN1CCCC1.Cc1ccc(S(=O)(=O)O)cc1 [Example 142, 2-[NH-Ethyl-N-pyrrolidinyl]-NH-pentyl-5-methylsulfonyl-4-(4-phenylpiperidin-1-yl)benzamide]
LDL-receptor induction (% of control) [1, 3]: 281% (0.15 μM)

CCCCCNC(=O)c1cc(S(C)(=O)=O)c(N2CCC(c3ccccc3)CC2)cc1NCCN1CCCC1 [Example 143, 2-[NH-Ethyl-N-pyrrolidinyl]-NH-pentyl-5-methylsulfonyl-4-(4-phenylpiperidin-1-yl)benzamide]
LDL-receptor induction (% of control) [1, 8]: 308% (0.15 μM)

CC1CC(C)CN(S(=O)(=O)c2cc(C(=O)O)c(Cl)cc2Cl)C1 (stereo not drawn) [reference compound]
LDL-receptor induction in %, compared with control ([1]; 0.05 μM): 94% | LDL-receptor induction in %, compared with control ([1]; 0.15 μM): 90% | LDL-receptor induction in %, compared with control ([1]; 1.5 μM): 90% | LDL-receptor induction in %, compared with control ([1]; 4 μM): 100%
